In ChEMBL document CHEMBL1128066, “Synthesis and antiviral activity of dihydroxycyclohexyl pyrimidine and purine carbocyclic nucleosides” (Bioorg Med Chem Lett, 1995):

How the values were obtained:
Assay type in all cases: functional, cell-based
Vero [1] = test: Antiviral activity was evaluated by the plaque reduction method against Herpes virus 1 (HSV-1) in Vero cells; conditions: Chlorocebus sabaeus
Vero [2] = test: Antiviral activity was evaluated by the plaque reduction method against Herpes virus 2 (HSV-2) in Vero cells; conditions: Chlorocebus sabaeus
PEU [3] = test: Antiviral activity was evaluated by the plaque reduction method against Cytomegalovirus (CMV) in PEU cells; conditions: Homo sapiens
PEU [4] = test: Compound was tested for its overt cytotoxicity in virus free PEU cell culture; conditions: Homo sapiens

SMILES	EC50 (Vero [1])	EC50 (Vero [2])	EC50 (PEU [3])	IC50 (PEU [4])
O=c1ccn([C@@H]2CC[C@H](OCc3ccccc3)C[C@H]2O)c(=O)[nH]1	158 µM	158 µM	10 µM	> 250 µM
O=c1ccn([C@@H]2C[C@@H](OCc3ccccc3)CC[C@H]2O)c(=O)[nH]1	10 µM	10 µM	10 µM	> 250 µM
Nc1nc(O)c2ncn(C3CCC(O)CC3O)c2n1 (configuration not stated)	188 µM	188 µM	188 µM	> 250 µM
Nc1ncnc2c1ncn2C1CCC(O)CC1O (configuration not stated)	28.5 µM	30 µM	200 µM	> 250 µM
Nc1ncnc2c1ncn2C1CCC(OCc2ccccc2)CC1O (configuration not stated)	16.8 µM	16.2 µM	147 µM	> 250 µM
Nc1nc(O)c2ncn(C3CCC(OCc4ccccc4)CC3O)c2n1 (configuration not stated)	21.2 µM	22.1 µM	140 µM	> 250 µM
O=c1ccn(C2CC(O)CCC2O)c(=O)[nH]1 (configuration not stated)	10 µM	0.97 µM	0.97 µM	> 250 µM
O=c1ccn(C2CCC(O)CC2O)c(=O)[nH]1 (configuration not stated)	0.97 µM	0.97 µM	10 µM	> 250 µM
